# Values joined by “and” are separate entries in the source; they are usually repeats but may differ in a detail not shown here. Equal values may be shown once. Numbers after ± are expanded uncertainties.
# Conditions: Gas, Buoyancy - hydrostatic balance with magnetic suspension - two sinkers
structure (smiles),measurement,setting,value
FCF [difluoromethane],mass density,"313.15 K, 201.8 kPa",4.12 ± 0.011 kg/m3
same,mass density,"313.15 K, 201.9 kPa",4.121 ± 0.011 kg/m3
same,mass density,"313.15 K, 490.8 kPa",10.336 ± 0.012 kg/m3 and 10.342 ± 0.012 kg/m3
same,mass density,"313.15 K, 791 kPa",17.275 ± 0.015 kg/m3 and 17.277 ± 0.015 kg/m3
same,mass density,"313.15 K, 996.6 kPa",22.349 ± 0.021 kg/m3 and 22.355 ± 0.021 kg/m3
same,mass density,"313.15 K, 1203.3 kPa",27.759 ± 0.024 kg/m3 and 27.77 ± 0.024 kg/m3
same,mass density,"313.15 K, 1396.5 kPa",33.148 ± 0.033 kg/m3 and 33.159 ± 0.033 kg/m3
same,mass density,"313.15 K, 1602.9 kPa",39.322 ± 0.035 kg/m3 and 39.331 ± 0.035 kg/m3
same,mass density,"313.15 K, 1801.8 kPa",45.76 ± 0.041 kg/m3
same,mass density,"313.15 K, 1801.9 kPa",45.748 ± 0.041 kg/m3
same,mass density,"313.15 K, 1998.1 kPa",52.687 ± 0.047 kg/m3 and 52.676 ± 0.047 kg/m3
same,mass density,"313.15 K, 2103.6 kPa",56.702 ± 0.051 kg/m3 and 56.692 ± 0.051 kg/m3
same,mass density,"313.15 K, 2201.5 kPa",60.637 ± 0.072 kg/m3 and 60.629 ± 0.072 kg/m3
same,mass density,"313.15 K, 2251 kPa",62.72 ± 0.056 kg/m3 and 62.711 ± 0.056 kg/m3
same,mass density,"313.15 K, 2298.1 kPa",64.762 ± 0.058 kg/m3 and 64.748 ± 0.058 kg/m3
same,mass density,"313.15 K, 2355.7 kPa",67.348 ± 0.061 kg/m3
same,mass density,"313.15 K, 2355.8 kPa",67.343 ± 0.061 kg/m3
same,mass density,"313.15 K, 2402.7 kPa",69.541 ± 0.09 kg/m3
same,mass density,"313.15 K, 2403 kPa",69.545 ± 0.09 kg/m3
same,mass density,"313.15 K, 2435 kPa",71.084 ± 0.064 kg/m3
same,mass density,"313.15 K, 2435.1 kPa",71.095 ± 0.064 kg/m3
same,mass density,"313.15 K, 2450.5 kPa",71.838 ± 0.065 kg/m3
same,mass density,"313.15 K, 2450.6 kPa",71.855 ± 0.065 kg/m3
same,mass density,"313.15 K, 2472 kPa",72.903 ± 0.066 kg/m3 and 72.918 ± 0.066 kg/m3
same,mass density,"323.15 K, 207.9 kPa",4.101 ± 0.011 kg/m3 and 4.103 ± 0.011 kg/m3
same,mass density,"323.15 K, 499.2 kPa",10.125 ± 0.012 kg/m3 and 10.143 ± 0.012 kg/m3 and 10.132 ± 0.012 kg/m3
same,mass density,"323.15 K, 801.1 kPa",16.793 ± 0.015 kg/m3
same,mass density,"323.15 K, 801.2 kPa",16.794 ± 0.015 kg/m3
same,mass density,"323.15 K, 998.3 kPa",21.387 ± 0.019 kg/m3 and 21.393 ± 0.019 kg/m3
same,mass density,"323.15 K, 1095.2 kPa",23.732 ± 0.024 kg/m3
same,mass density,"323.15 K, 1200.3 kPa",26.337 ± 0.028 kg/m3
same,mass density,"323.15 K, 1200.4 kPa",26.341 ± 0.028 kg/m3
same,mass density,"323.15 K, 1397.4 kPa",31.424 ± 0.03 kg/m3 and 31.416 ± 0.03 kg/m3
same,mass density,"323.15 K, 1590.6 kPa",36.664 ± 0.046 kg/m3 and 36.67 ± 0.046 kg/m3
same,mass density,"323.15 K, 1797.2 kPa",42.644 ± 0.061 kg/m3 and 42.658 ± 0.061 kg/m3
same,mass density,"323.15 K, 2004.9 kPa",49.091 ± 0.079 kg/m3 and 49.105 ± 0.079 kg/m3
same,mass density,"323.15 K, 2200.6 kPa",55.637 ± 0.064 kg/m3 and 55.653 ± 0.064 kg/m3
same,mass density,"323.15 K, 2402.3 kPa",62.99 ± 0.077 kg/m3 and 62.978 ± 0.077 kg/m3
same,mass density,"323.15 K, 2596.1 kPa",70.738 ± 0.17 kg/m3 and 70.733 ± 0.17 kg/m3
same,mass density,"323.15 K, 2699 kPa",75.19 ± 0.21 kg/m3
same,mass density,"323.15 K, 2699.1 kPa",75.207 ± 0.21 kg/m3
same,mass density,"323.15 K, 2799 kPa",79.805 ± 0.29 kg/m3 and 79.816 ± 0.26 kg/m3
same,mass density,"323.15 K, 2802.9 kPa",80.005 ± 0.29 kg/m3 and 80.017 ± 0.33 kg/m3
same,mass density,"323.15 K, 2900.6 kPa",84.82 ± 0.28 kg/m3 and 84.839 ± 0.28 kg/m3
same,mass density,"323.15 K, 2901.2 kPa",84.882 ± 0.28 kg/m3 and 84.872 ± 0.28 kg/m3
same,mass density,"323.15 K, 2947 kPa",87.258 ± 0.31 kg/m3 and 87.244 ± 0.31 kg/m3
same,mass density,"323.15 K, 2960.3 kPa",87.971 ± 0.33 kg/m3 and 87.99 ± 0.33 kg/m3
same,mass density,"323.15 K, 3002.2 kPa",90.24 ± 0.41 kg/m3
same,mass density,"323.15 K, 3002.3 kPa",90.261 ± 0.38 kg/m3
same,mass density,"323.15 K, 3010.2 kPa",90.716 ± 0.38 kg/m3 and 90.73 ± 0.38 kg/m3
same,mass density,"323.15 K, 3041.1 kPa",92.478 ± 0.39 kg/m3
same,mass density,"323.15 K, 3041.2 kPa",92.495 ± 0.39 kg/m3
same,mass density,"323.15 K, 3074.6 kPa",94.445 ± 0.4 kg/m3 and 94.453 ± 0.4 kg/m3
same,mass density,"323.15 K, 3099.5 kPa",95.942 ± 0.43 kg/m3 and 95.952 ± 0.43 kg/m3
same,mass density,"323.15 K, 3125.5 kPa",97.558 ± 0.44 kg/m3
same,mass density,"323.15 K, 3125.6 kPa",97.549 ± 0.44 kg/m3
same,mass density,"323.15 K, 3134.2 kPa",98.084 ± 0.42 kg/m3

# — the NIST ThermoML archive (doi:10.1021/je700236c)
